Assay results: patent publication US20190218207A1, “3-(Pyridin-3-yl)-Acrylamide and N-(Pyridin-3-yl)-Acrylamide Derivatives and Their Use as PAK or NAMPT Modulators” (Karyopharm Therapeutics Inc., priority 2015, published 2019)
Read-outs that look alike come from different tables or passages of the source.

Assays:
Z138 cells = experiment: MTT cell proliferation assay, Z138 cells; type: cell-based, human
Method: (§1) The MTT cell proliferation assay was used to study the cytotoxic properties of the compounds. The assay was performed according to the method described by Roche Molecular Biochemicals, with minor modifications. The assay is based on the cleavage of the tetrazolium salt, MTT, in the presence of an electron-coupling reagent. The water-insoluble formazan salt produced must be solubilized in an additional step. Cells grown in a 96-well tissue culture plate were incubated with the MTT solution for approximately 4 hours. After this incubation period, a water-insoluble formazan dye formed. After solubilization, the formazan dye was quantitated using a scanning multi-well spectrophotometer (ELISA reader). […] The cells were seeded at 5,000-10,000 cells in each well of 96-well plate in 100 μL of fresh culture medium and were allowed to attach overnight. The stock solutions of the compounds were diluted in […] cell culture medium to obtain eight concentrations of each test compound, ranging from 1 nM to 30 μM. […] All optical densities were measured at 490 nm using a Vmax Kinetic Microplate Reader (Molecular Devices). In most cases, the assay was performed in duplicate and the results were presented as a mean percent inhibition to the negative control±SE. The following formula was used to calculate the percent of inhibition: Inhibition (%)=(1-(ODo/OD))×100.
(§2) The compounds were tested against MS751, Z138 and 3T3 cells. The MS751 cell line is derived from a metastasis to lymph node of human cervix from a patient diagnosed with squameous cell carcinoma of the cervix. The Z138 cell line is a mature B-cell acute lymphoblastic leukemia cell line derived from a patient with chronic lumphocytic leukemia. 3T3 cells are standard fibroblast cells; they were originally isolated from Swiss mouse embryo tissue.

3T3 cells = experiment: MTT cell proliferation assay, 3T3 cells; type: cell-based, mouse; settings: 3T3 fibroblast cells, incubation approximately 64-72 hours
Method: as §1, §2

MS751 cells = experiment: MTT cell proliferation assay, MS751 cells; type: cell-based, human; settings: Homo sapiens, incubation approximately 64-72 hours, read-out: MTT Assay IC50, MS 751
Method: as §1, §2

[1] = Homo sapiens, Z-138, incubation approximately 64-72 hours

Question: For “2-(6-aminopyridin-3-yloxy)-N-((4-(3-(4-fluorophenyl)-4′-(4,4-difluoropiperidine-1-carbonyl)biphenyl-4-yl)furan-2-yl)methyl)acetamide [Compound A028]”, which IC50 (Z138 cells; incubation approximately 64-72 hours, read-out: MTT Assay IC50, Z-138) is on record?
Answer: Its IC50 is less than 1 µM.

Question: What about the IC50 (3T3 cells) of the same compound?
Answer: Its IC50 is greater than 10 µM.

Question: Which IC50 (MS751 cells) does the source give for Nc1ccc(/C=C/C(=O)NCc2ccc(-c3ccc(-c4ccc(C(=O)N5CCC(F)(F)CC5)cn4)cc3C(F)(F)F)o2)cn1 [Compound A001, (E)-3-(6-aminopyridin-3-yl)-N-((5-(4-(5-(4,4-difluoropiperidine-1-carbonyl)pyridin-2-yl)-2-(trifluoromethyl)phenyl)furan-2-yl)methyl)acrylamide] here?
Answer: Its IC50 is less than 1 µM.

Question: And the IC50 (Z138 cells; [1])?
Answer: The IC50 was less than 1 µM.

Question: And the IC50 (3T3 cells; Mus musculus, NIH3T3)?
Answer: The IC50 was 1 to 5 µM.

Question: O=C(/C=C/c1cccnc1)NCc1ccc(-c2ccc(-c3ccc(C(=O)N4CCC(F)(F)CC4)cn3)cc2C(F)(F)F)o1 [Compound A002, (E)-N-((5-(4-(5-(4,4-difluoropiperidine-1-carbonyl)pyridin-2-yl)-2-(trifluoromethyl)phenyl)furan-2-yl)methyl)-3-(pyridin-3-yl)acrylamide] was tested. Which IC50 (MS751 cells) did it give?
Answer: Its IC50 is less than 1 µM.

Question: What about the IC50 (Z138 cells; [1]) of the same compound?
Answer: Its IC50 is less than 1 µM.

Question: And the IC50 (3T3 cells; Mus musculus, NIH3T3)?
Answer: Its IC50 is greater than 10 µM.

Question: Which IC50 (MS751 cells) does the source give for Nc1ccc(/C=C/C(=O)NCc2ccc(-c3ccc(-c4ccc(C(=O)N5CC(F)(F)C5)cn4)cc3C(F)(F)F)o2)cn1 [Compound A003, (E)-3-(6-aminopyridin-3-yl)-N-((5-(4-(5-(3,3-difluoroazetidine-1-carbonyl)pyridin-2-yl)-2-(trifluoromethyl)phenyl)furan-2-yl)methyl)acrylamide] here?
Answer: The IC50 was less than 1 µM.

Question: What about the IC50 (Z138 cells; [1]) of the same compound?
Answer: Its IC50 is less than 1 µM.

Question: And the IC50 (3T3 cells; Mus musculus, NIH3T3)?
Answer: The IC50 was less than 1 µM.

Question: What does the source list for Nc1ccc(/C=C/C(=O)NCc2ccc(-c3ccc(-c4ccc(C(=O)N5CCC(F)(F)CC5)cn4)cc3C(F)(F)F)s2)cn1 [Compound A005, (E)-3-(6-aminopyridin-3-yl)-N-((5-(4-(5-(4,4-difluoropiperidine-1-carbonyl)pyridin-2-yl)-2-(trifluoromethyl)phenyl)thiophen-2-yl)methyl)acrylamide]?
Answer: IC50 (MS751 cells): < 1 µM; IC50 (Z138 cells; [1]): < 1 µM; IC50 (3T3 cells; Mus musculus, NIH3T3): 1 to 5 µM

Question: What does the source list for Nc1ccc(/C=C/C(=O)NCc2ccc(-c3ccc(-c4ccc(C(=O)N5CCC(F)(F)CC5)cn4)cc3Cl)o2)cn1 [Compound A006, (E)-3-(6-aminopyridin-3-yl)-N-((5-(2-chloro-4-(5-(4,4-difluoropiperidine-1-carbonyl)pyridin-2-yl)phenyl)furan-2-yl)methyl)acrylamide]?
Answer: IC50 (MS751 cells): < 1 µM; IC50 (Z138 cells; [1]): < 1 µM; IC50 (3T3 cells; Mus musculus, NIH3T3): 1 to 5 µM

Question: How did the IC50 (MS751 cells) turn out when Nc1ccc(/C=C/C(=O)NCc2ccc(-c3ccc(-c4ccc(C(=O)N5CCC(F)(F)CC5)cc4F)cc3-c3ccc(F)cc3)o2)cn1 [Compound A007, (E)-3-(6-aminopyridin-3-yl)-N-((5-(4-(4,4-difluoropiperidine-1-carbonyl)-2,4″-difluoro-[1,1′:3′,1″-terphenyl]-4′-yl)furan-2-yl)methyl)acrylamide] was run?
Answer: Its IC50 is less than 1 µM.

Question: What about the IC50 (Z138 cells; [1]) of the same compound?
Answer: Its IC50 is less than 1 µM.

Question: And the IC50 (3T3 cells; Mus musculus, NIH3T3)?
Answer: The IC50 was 5 to 10 µM.

Question: With Nc1ccc(/C=C/C(=O)NCc2ccc(-c3ccc(-c4ccc(C(=O)N5CCC(F)(F)CC5)cc4)cc3-c3ccc(F)cc3)o2)cn1 [Compound A008, (E)-3-(6-aminopyridin-3-yl)-N-((5-(4-(4,4-difluoropiperidine-1-carbonyl)-4″-fluoro-[1,1′:3′,1″-terphenyl]-4′-yl)furan-2-yl)methyl)acrylamide] as the compound, how does the IC50 (MS751 cells) read?
Answer: The IC50 was less than 1 µM.

Question: What about the IC50 (Z138 cells; [1]) of the same compound?
Answer: The IC50 was less than 1 µM.

Question: And the IC50 (3T3 cells; Mus musculus, NIH3T3)?
Answer: The IC50 was 5 to 10 µM.

Question: How did the IC50 (MS751 cells) turn out when Nc1ccc(/C=C/C(=O)NCc2ccc(-c3ccc(-c4ccc(C(=O)N5CCC(F)(F)CC5)cc4)cc3-c3cccc(Cl)c3)o2)cn1 [Compound A009, (E)-3-(6-aminopyridin-3-yl)-N-((5-(3″-chloro-4-(4,4-difluoropiperidine-1-carbonyl)-[1,1′:3′,1″-terphenyl]-4′-yl)furan-2-yl)methyl)acrylamide] was run?
Answer: The IC50 was less than 1 µM.

Question: And the IC50 (Z138 cells; [1])?
Answer: The IC50 was less than 1 µM.

Question: And the IC50 (3T3 cells; Mus musculus, NIH3T3)?
Answer: Its IC50 is 1 to 5 µM.

Question: Which results are given for Nc1ccc(/C=C/C(=O)NCc2nnc(-c3ccc(-c4ccc(C(=O)N5CCC(F)(F)CC5)cc4)cc3-c3ccc(F)cc3)o2)cn1 [Compound A010, (E)-3-(6-aminopyridin-3-yl)-N-((5-(4-(4,4-difluoropiperidine-1-carbonyl)-4″-fluoro-[1,1′:3′,1″-terphenyl]-4′-yl)-1,3,4-oxadiazol-2-yl)methyl)acrylamide]?
Answer: IC50 (MS751 cells): < 1 µM; IC50 (Z138 cells; [1]): < 1 µM; IC50 (3T3 cells; Mus musculus, NIH3T3): > 10 µM

Question: What does the source list for Nc1ccc(/C=C/C(=O)NCc2ccc(-c3ccc(-c4ccc(C(=O)N5CCC(F)(F)CC5)cc4)cc3-c3ccc(F)cc3)[nH]2)cn1 [Compound A011, (E)-3-(6-aminopyridin-3-yl)-N-((5-(4-(4,4-difluoropiperidine-1-carbonyl)-4″-fluoro-[1,1′:3′,1″-terphenyl]-4′-yl)-1H-pyrrol-2-yl)methyl)acrylamide]?
Answer: IC50 (MS751 cells): 1 to 5 µM; IC50 (Z138 cells; [1]): < 1 µM; IC50 (3T3 cells; Mus musculus, NIH3T3): > 10 µM

Question: Which results are given for Cc1c(CNC(=O)/C=C/c2ccc(N)nc2)sc(-c2ccc(-c3ccc(C(=O)N4CC(F)C4)cc3)cc2-c2ccc(F)cc2)c1C [Compound A013, (E)-3-(6-aminopyridin-3-yl)-N-((5-(4″-fluoro-4-(3-fluoroazetidine-1-carbonyl)-[1,1′:3′,1″-terphenyl]-4′-yl)-3,4-dimethylthiophen-2-yl)methyl)acrylamide]?
Answer: IC50 (MS751 cells): 1 to 5 µM; IC50 (Z138 cells; [1]): < 1 µM; IC50 (3T3 cells; Mus musculus, NIH3T3): > 10 µM

Question: How did the IC50 (MS751 cells) turn out when Cc1cc(-c2ccc(-c3ccc(C(=O)N4CC(F)C4)cc3)cc2C(F)(F)F)sc1CNC(=O)/C=C/c1ccc(N)nc1 [Compound A014, (E)-3-(6-aminopyridin-3-yl)-N-((5-(4′-(3-fluoroazetidine-1-carbonyl)-3-(trifluoromethyl)-[1,1′-biphenyl]-4-yl)-3-methylthiophen-2-yl)methyl)acrylamide] was run?
Answer: Its IC50 is less than 1 µM.

Question: What about the IC50 (Z138 cells; [1]) of the same compound?
Answer: Its IC50 is less than 1 µM.

Question: And the IC50 (3T3 cells; Mus musculus, NIH3T3)?
Answer: The IC50 was 5 to 10 µM.

Question: Which results are given for Nc1ccc(/C=C/C(=O)NCc2ccc(-c3ccc(-c4ccc(C(=O)N5CC(F)(F)C5)cc4)cc3C(F)(F)F)o2)cn1 [Compound A015, (E)-3-(6-aminopyridin-3-yl)-N-((5-(4′-(3,3-difluoroazetidine-1-carbonyl)-3-(trifluoromethyl)-[1,1′-biphenyl]-4-yl)furan-2-yl)methyl)acrylamide]?
Answer: IC50 (MS751 cells): < 1 µM; IC50 (Z138 cells; [1]): < 1 µM; IC50 (3T3 cells; Mus musculus, NIH3T3): > 10 µM

Question: Cc1c(CNC(=O)/C=C/c2ccc(N)nc2)sc(-c2ccc(-c3ccc(C(=O)N4CC(F)C4)cc3)cc2C(F)(F)F)c1C [Compound A016, (E)-3-(6-aminopyridin-3-yl)-N-((5-(4′-(3-fluoroazetidine-1-carbonyl)-3-(trifluoromethyl)-[1,1′-biphenyl]-4-yl)-3,4-dimethylthiophen-2-yl)methyl)acrylamide] was tested. Which IC50 (MS751 cells) did it give?
Answer: Its IC50 is greater than 10 µM.

Question: What about the IC50 (Z138 cells; [1]) of the same compound?
Answer: The IC50 was greater than 10 µM.

Question: And the IC50 (3T3 cells; Mus musculus, NIH3T3)?
Answer: Its IC50 is greater than 10 µM.

Question: Which IC50 (MS751 cells) does the source give for Cc1c(CNC(=O)/C=C/c2ccc(N)nc2)sc(-c2ccc(C3CC3C(=O)N3CC(F)C3)cc2C(F)(F)F)c1C (stereo not shown) [Compound A017, (E)-3-(6-aminopyridin-3-yl)-N-((5-(4-(2-(3-fluoroazetidine-1-carbonyl)cyclopropyl)-2-(trifluoromethyl)phenyl)-3,4-dimethylthiophen-2-yl)methyl)acrylamide] here?
Answer: The IC50 was 1 to 5 µM.

Question: What about the IC50 (Z138 cells; [1]) of the same compound?
Answer: Its IC50 is less than 1 µM.

Question: What about the IC50 (3T3 cells; Mus musculus, NIH3T3) of the same compound?
Answer: Its IC50 is greater than 10 µM.

Question: For Nc1ccc(/C=C/C(=O)NCc2ccc(-c3cc4c(C(=O)N5CCC(F)(F)CC5)c[nH]c4cc3C(F)(F)F)o2)cn1 [Compound A029, (E)-3-(6-aminopyridin-3-yl)-N-((5-(3-(4,4-difluoropiperidine-1-carbonyl)-6-(trifluoromethyl)-1H-indol-5-yl)furan-2-yl)methyl)acrylamide], which IC50 (Z138 cells; [1]) is on record?
Answer: Its IC50 is less than 1 µM.

Question: And the IC50 (3T3 cells; Mus musculus, NIH3T3)?
Answer: Its IC50 is greater than 10 µM.
